Assay results taken from the NIST ThermoML archive (doi:10.1016/j.jct.2008.06.017).
± gives the expanded uncertainty stated by the source.

How the values were obtained:
[1] = Liquid, Vibrating tube method
[2] = xn = mol fraction of the nth substance listed; conditions: Liquid, Vibrating tube method

C=Cc1ccccc1 [styrene]
[1]
Conditions	mass density [kg/m3]
293.15 K	906.26 ± 0.075
303.15 K	897.392 ± 0.078
313.15 K	888.472 ± 0.081

COC(=O)OC [dimethyl carbonate] + C=COC(C)=O
[2], x1 = 1
Conditions	mass density [kg/m3]
293.15 K	1069.79 ± 0.067
303.15 K	1056.75 ± 0.063
313.15 K	1043.37 ± 0.06

C=C(C)C(=O)OCCCC [butyl 2-methyl-2-propenoate] + COC(=O)OC
[2]
Conditions	mass density [kg/m3]
293.15 K, x2 = 0	895.231 ± 0.11
293.15 K, x2 = 0.0253	897.401 ± 0.11
293.15 K, x2 = 0.0496	899.525 ± 0.11
293.15 K, x2 = 0.1	904.247 ± 0.1
293.15 K, x2 = 0.1512	909.195 ± 0.099
293.15 K, x2 = 0.2002	914.234 ± 0.095
293.15 K, x2 = 0.2501	919.652 ± 0.092
293.15 K, x2 = 0.3	925.514 ± 0.088
293.15 K, x2 = 0.3496	931.664 ± 0.085
293.15 K, x2 = 0.4002	938.381 ± 0.082
293.15 K, x2 = 0.45	945.36 ± 0.079
293.15 K, x2 = 0.4998	952.885 ± 0.076
293.15 K, x2 = 0.5499	960.906 ± 0.074
293.15 K, x2 = 0.6	969.499 ± 0.071
293.15 K, x2 = 0.6499	978.774 ± 0.07
293.15 K, x2 = 0.7003	988.865 ± 0.069
293.15 K, x2 = 0.7501	999.691 ± 0.068
293.15 K, x2 = 0.7998	1011.24 ± 0.072
293.15 K, x2 = 0.8502	1024.04 ± 0.076
293.15 K, x2 = 0.8997	1037.82 ± 0.082
293.15 K, x2 = 0.9499	1053.1 ± 0.087
293.15 K, x2 = 0.9747	1061.18 ± 0.091
303.15 K, x2 = 0	885.991 ± 0.11
303.15 K, x2 = 0.0255	888.128 ± 0.11
303.15 K, x2 = 0.0511	890.378 ± 0.11
303.15 K, x2 = 0.0984	894.561 ± 0.11
303.15 K, x2 = 0.1496	899.445 ± 0.1
303.15 K, x2 = 0.1998	904.542 ± 0.098
303.15 K, x2 = 0.251	909.93 ± 0.094
303.15 K, x2 = 0.3	915.538 ± 0.091
303.15 K, x2 = 0.3498	921.462 ± 0.087
303.15 K, x2 = 0.4002	927.876 ± 0.084
303.15 K, x2 = 0.4505	934.768 ± 0.081
303.15 K, x2 = 0.5001	942.022 ± 0.078
303.15 K, x2 = 0.5497	949.757 ± 0.076
303.15 K, x2 = 0.6003	958.326 ± 0.074
303.15 K, x2 = 0.6507	967.581 ± 0.072
303.15 K, x2 = 0.7003	977.274 ± 0.07
303.15 K, x2 = 0.7503	987.854 ± 0.069
303.15 K, x2 = 0.8003	999.303 ± 0.069
303.15 K, x2 = 0.8497	1011.72 ± 0.073
303.15 K, x2 = 0.8997	1025.31 ± 0.079
303.15 K, x2 = 0.95	1040.3 ± 0.083
303.15 K, x2 = 0.9746	1048.26 ± 0.088
313.15 K, x2 = 0	876.19 ± 0.12
313.15 K, x2 = 0.0248	878.23 ± 0.12
313.15 K, x2 = 0.0506	880.426 ± 0.11
313.15 K, x2 = 0.1009	884.856 ± 0.11
313.15 K, x2 = 0.1505	889.457 ± 0.1
313.15 K, x2 = 0.2003	894.361 ± 0.1
313.15 K, x2 = 0.2512	899.681 ± 0.097
313.15 K, x2 = 0.3005	905.153 ± 0.093
313.15 K, x2 = 0.3502	910.961 ± 0.09
313.15 K, x2 = 0.4009	917.353 ± 0.087
313.15 K, x2 = 0.4509	924.075 ± 0.084
313.15 K, x2 = 0.4999	931.103 ± 0.081
313.15 K, x2 = 0.5506	938.855 ± 0.078
313.15 K, x2 = 0.6	947.003 ± 0.076
313.15 K, x2 = 0.6502	955.954 ± 0.074
313.15 K, x2 = 0.7002	965.503 ± 0.072
313.15 K, x2 = 0.7503	975.976 ± 0.071
313.15 K, x2 = 0.7999	987.089 ± 0.071
313.15 K, x2 = 0.8501	999.417 ± 0.071
313.15 K, x2 = 0.8998	1012.69 ± 0.076
313.15 K, x2 = 0.9498	1027.3 ± 0.08
313.15 K, x2 = 0.9751	1035.15 ± 0.085

C=Cc1ccccc1 [styrene] + COC(=O)OC
[2]
Conditions	mass density [kg/m3]
293.15 K, x2 = 0	906.26 ± 0.075
293.15 K, x2 = 0.0246	909.146 ± 0.077
293.15 K, x2 = 0.0498	912.112 ± 0.076
293.15 K, x2 = 0.1006	918.267 ± 0.075
293.15 K, x2 = 0.1506	924.493 ± 0.073
293.15 K, x2 = 0.2004	930.891 ± 0.072
293.15 K, x2 = 0.2506	937.533 ± 0.07
293.15 K, x2 = 0.3008	944.38 ± 0.069
293.15 K, x2 = 0.3498	951.272 ± 0.067
293.15 K, x2 = 0.4007	958.655 ± 0.066
293.15 K, x2 = 0.4498	966.048 ± 0.065
293.15 K, x2 = 0.5001	973.84 ± 0.063
293.15 K, x2 = 0.5499	981.838 ± 0.062
293.15 K, x2 = 0.5996	990.075 ± 0.061
293.15 K, x2 = 0.6507	998.871 ± 0.06
293.15 K, x2 = 0.7001	1007.72 ± 0.062
293.15 K, x2 = 0.7496	1016.93 ± 0.065
293.15 K, x2 = 0.7997	1026.61 ± 0.067
293.15 K, x2 = 0.8501	1036.78 ± 0.07
293.15 K, x2 = 0.9001	1047.29 ± 0.074
293.15 K, x2 = 0.9499	1058.27 ± 0.077
293.15 K, x2 = 0.9747	1063.93 ± 0.079
303.15 K, x2 = 0	897.392 ± 0.077
303.15 K, x2 = 0.0262	900.37 ± 0.079
303.15 K, x2 = 0.0502	903.146 ± 0.079
303.15 K, x2 = 0.1004	909.105 ± 0.077
303.15 K, x2 = 0.1506	915.204 ± 0.076
303.15 K, x2 = 0.2005	921.462 ± 0.074
303.15 K, x2 = 0.2502	927.883 ± 0.073
303.15 K, x2 = 0.3001	934.514 ± 0.071
303.15 K, x2 = 0.3502	941.367 ± 0.07
303.15 K, x2 = 0.4	948.407 ± 0.068
303.15 K, x2 = 0.45	955.705 ± 0.067
303.15 K, x2 = 0.5003	963.262 ± 0.065
303.15 K, x2 = 0.5498	971.001 ± 0.064
303.15 K, x2 = 0.5998	979.074 ± 0.063
303.15 K, x2 = 0.6497	987.452 ± 0.062
303.15 K, x2 = 0.7007	996.305 ± 0.061
303.15 K, x2 = 0.7502	1005.27 ± 0.062
303.15 K, x2 = 0.8002	1014.68 ± 0.065
303.15 K, x2 = 0.85	1024.5 ± 0.067
303.15 K, x2 = 0.8999	1034.72 ± 0.07
303.15 K, x2 = 0.9502	1045.5 ± 0.073
303.15 K, x2 = 0.975	1051.05 ± 0.076
313.15 K, x2 = 0	888.472 ± 0.08
313.15 K, x2 = 0.0256	891.333 ± 0.082
313.15 K, x2 = 0.0501	894.082 ± 0.081
313.15 K, x2 = 0.0998	899.822 ± 0.08
313.15 K, x2 = 0.1514	905.948 ± 0.078
313.15 K, x2 = 0.2007	911.977 ± 0.077
313.15 K, x2 = 0.2506	918.225 ± 0.075
313.15 K, x2 = 0.3008	924.745 ± 0.073
313.15 K, x2 = 0.3499	931.26 ± 0.072
313.15 K, x2 = 0.4006	938.218 ± 0.07
313.15 K, x2 = 0.4501	945.282 ± 0.069
313.15 K, x2 = 0.5103	954.115 ± 0.067
313.15 K, x2 = 0.5503	960.19 ± 0.066
313.15 K, x2 = 0.5995	967.947 ± 0.065
313.15 K, x2 = 0.6499	976.16 ± 0.064
313.15 K, x2 = 0.6999	984.624 ± 0.063
313.15 K, x2 = 0.7503	993.432 ± 0.062
313.15 K, x2 = 0.8002	1002.61 ± 0.062
313.15 K, x2 = 0.8499	1012.09 ± 0.064
313.15 K, x2 = 0.9001	1022.04 ± 0.067
313.15 K, x2 = 0.9497	1032.41 ± 0.07
313.15 K, x2 = 0.975	1037.84 ± 0.072
